# Data taken from EP4793641A1, “NOVEL METHOD FOR ANALYZING BIOMOLECULAR INTERACTIONS” (Kyoto University, priority 2023, dated 2025).
# Non-standard residues stand in square brackets, D forms with d. Residues, ends and D or L forms follow the SMILES beside them. *: point of attachment. pT = C[C@@H](OP(=O)(O)O)[C@H](N)C(=O)O; pS = N[C@@H](COP(=O)(O)O)C(=O)O; Meb = Cc1ccc(C*)cc1; Bn = c1ccc(C*)cc1; Cam = NC(=O)C*
# Target: T1, interactions between Talin 1 (TLN1) and integrin subunit beta (ITGB) (Homo sapiens, UniProt Q9Y490)
# T1 construct: LgBit or SmBit (N-terminal of the HaloTag); made in house
# Experiment: Flip-flop detection mechanism on DNA origami (LgBit/SmBit luminescence), inhibitor screening
# Assay type: biochemical
# Details: inhibition of binding between TLN1 and ITBG
# Text: Two types of systems, i.e., flip-flop detection mechanism and switch detection mechanism, were constructed by using HaloTag, LgBit, SmBit, TLN1, and ITGB. Each of TLN1 (Uniprot ID: Q9Y490) and ITGB1 (Uniprot ID: P05556) was cloned from the registered genetic information. HaloTAg has three chemically modifiable locations at a ligand recognition site, C-terminus, and N-terminus. In this Example, a single-stranded DNA for attaching to DNA origami was connected to a ligand recognition site of HaloTag, a subunit of an interaction complex was connected to the C-terminus, and LgBit or SmBit was connected to the N-terminus.
# The outline of the system is disclosed in Figure 23. When TLN1 and ITBG are in a bound state in this system, LgBit and SmBit are at spatially separated positions from each other, with a HaloTag interposed therebetween. In this regard, if an inhibitor is added, complex formation of TLN1 and ITBG is inhibited. As a result, a LgBit-SmBit complex can be formed, and a luminescence reaction progresses.
# As a candidate drug for inhibiting the binding between TLN1 and ITBG, peptide inhibitors consisting of 13 amino acids prepared by modifying amino acids in an intracellular region of ITGB3 have been designed (Shen B. et al., A directional switch of integrin signaling and a new antithrombotic strategy. Nature 503, 131-135 (2013)). IC50 values for the peptides shown in the following table were calculated by using the flip-flop detection mechanism described in Example 11 for optimizing the sequence. In this manner, the effect of a large number of compounds on the interaction with a target protein can be readily analyzed in the system of the present disclosed.
row,SMILES,Inhibitory activity
1,CSCC[C@H](NC(=O)[C@H](Cc1c[nH]c2ccccc12)NC(=O)[C@H](CCCCN)NC(=O)[C@H](CS)NC(=O)[C@H](CC(N)=O)NC(=O)[C@H](CCSC)NC(=O)[C@H](CCCCN)NC(=O)[C@H](CCC(=O)O)NC(=O)[C@H](CCCCN)NC(=O)[C@H](CCC(=O)O)NC(=O)[C@H](Cc1ccccc1)NC(=O)[C@@H](N)CCCCN)C(=O)N[C@@H](COP(=O)(O)O)C(=O)O [FIYM14] (H-KFEKEKMNCKWM[pS]-OH),no inhibition
2,CSCC[C@H](NC(=O)[C@H](CCCCN)NC(=O)[C@H](CCC(=O)O)NC(=O)[C@H](CCCCN)NC(=O)[C@H](CCC(=O)O)NC(=O)[C@H](Cc1ccccc1)NC(=O)[C@@H](N)CCCCN)C(=O)N[C@@H](CC(N)=O)C(=O)N[C@@H](CSCc1ccc(C)cc1)C(=O)N[C@@H](CCCCN)C(=O)N[C@@H](Cc1c[nH]c2ccccc12)C(=O)N[C@@H](CCSC)C(=O)N[C@H](C(=O)O)[C@@H](C)O [FIYM41] (H-KFEKEKMNC(Meb)KWMT-OH),no inhibition
3,CSCC[C@H](NC(=O)[C@H](CC(N)=O)NC(=O)[C@@H](N)CCC(=O)O)C(=O)N[C@@H](CCCCN)C(=O)N[C@@H](CCC(=O)O)C(=O)N[C@@H](CCCCN)C(=O)N[C@@H](CCCCN)C(=O)N[C@@H](CC(=O)O)C(=O)N[C@@H](Cc1c[nH]c2ccccc12)C(=O)N[C@@H](C)C(=O)N[C@@H](CCCCN)C(=O)N[C@@H](Cc1ccccc1)C(=O)N[C@H](C(=O)O)[C@@H](C)O [FIYM3] (H-ENMKEKKDWAKFT-OH),no inhibition
4,CSCC[C@H](NC(=O)[C@H](CCCNC(=N)N)NC(=O)[C@H](CCC(=O)O)NC(=O)[C@H](CCCCN)NC(=O)[C@H](CCC(=O)O)NC(=O)[C@H](Cc1ccccc1)NC(=O)[C@@H](N)CCCCN)C(=O)N[C@@H](CC(N)=O)C(=O)N[C@@H](CS)C(=O)N[C@@H](CCCCN)C(=O)N[C@@H](Cc1c[nH]c2ccccc12)C(=O)N[C@@H](CCSC)C(=O)N[C@H](C(=O)O)[C@@H](C)O [FIYM28] (H-KFEKERMNCKWMT-OH),no inhibition
5,CSCC[C@H](NC(=O)[C@H](CCCCN)NC(=O)[C@H](CCC(=O)O)NC(=O)[C@H](CCCCN)NC(=O)[C@H](CCC(=O)O)NC(=O)[C@H](C)NC(=O)[C@@H](N)CCCCN)C(=O)N[C@@H](CC(N)=O)C(=O)N[C@@H](C)C(=O)N[C@@H](CCCCN)C(=O)N[C@@H](C)C(=O)N[C@@H](CC(=O)O)C(=O)N[C@H](C(=O)O)[C@@H](C)O [FIYM2] (H-KAEKEKMNAKADT-OH),no inhibition
6,CSCC[C@H](NC(=O)[C@H](CCCCN)NC(=O)[C@H](CCC(=O)O)NC(=O)[C@H](CCCNC(=N)N)NC(=O)[C@H](CCC(=O)O)NC(=O)[C@H](Cc1ccccc1)NC(=O)[C@@H](N)CCCNC(=N)N)C(=O)N[C@@H](CC(N)=O)C(=O)N[C@@H](CS)C(=O)N[C@@H](CCCNC(=N)N)C(=O)N[C@@H](Cc1c[nH]c2ccccc12)C(=O)N[C@@H](CCSC)C(=O)N[C@H](C(=O)O)[C@@H](C)O [FIYM16] (H-RFEREKMNCRWMT-OH),no inhibition
7,CSCC[C@H](NC(=O)[C@H](CCCCN)NC(=O)[C@H](CCC(=O)O)NC(=O)[C@H](CCCCN)NC(=O)[C@H](CCC(=O)O)NC(=O)[C@H](Cc1ccccc1)NC(=O)[C@@H](N)CCCCN)C(=O)N[C@@H](CCSC)C(=O)N[C@@H](CS)C(=O)N[C@@H](CCCCN)C(=O)N[C@@H](Cc1c[nH]c2ccccc12)C(=O)N[C@@H](CCSC)C(=O)N[C@H](C(=O)O)[C@@H](C)O [FIYM29] (H-KFEKEKMMCKWMT-OH),no inhibition
8,CSCC[C@H](NC(=O)[C@H](CCCCN)NC(=O)[C@H](CCC(=O)O)NC(=O)[C@H](CCCCN)NC(=O)[C@H](CCC(=O)O)NC(=O)[C@H](Cc1ccccc1)NC(=O)[C@@H](N)CCCCN)C(=O)N[C@@H](CC(N)=O)C(=O)N[C@@H](CCSC)C(=O)N[C@@H](CCCCN)C(=O)N[C@@H](Cc1c[nH]c2ccccc12)C(=O)N[C@@H](CCSC)C(=O)N[C@H](C(=O)O)[C@@H](C)O [FIYM35] (H-KFEKEKMNMKWMT-OH),no inhibition
9,CSCC[C@H](NC(=O)[C@H](CCCCN)NC(=O)[C@H](CCC(=O)O)NC(=O)[C@H](CCCCN)NC(=O)[C@H](CCC(=O)O)NC(=O)[C@H](Cc1ccccc1)NC(=O)[C@@H](N)CCCCN)C(=O)N[C@@H](CC(N)=O)C(=O)N[C@@H](CS)C(=O)N[C@@H](CCCCN)C(=O)N[C@@H](Cc1c[nH]c2ccccc12)C(=O)N[C@@H](CCSC)C(=O)N[C@H](C(=O)O)[C@@H](C)OP(=O)(O)O [FIYM13] (H-KFEKEKMNCKWM[pT]-OH),no inhibition
10,CSCC[C@H](NC(=O)[C@H](CCCCN)NC(=O)[C@H](CCC(=O)O)NC(=O)[C@H](CCCCN)NC(=O)[C@H](CCC(=O)O)NC(=O)[C@H](Cc1ccccc1)NC(=O)[C@@H](N)CCCCN)C(=O)N[C@@H](CC(N)=O)C(=O)N[C@@H](CSCc1ccccc1)C(=O)N[C@@H](CCCCN)C(=O)N[C@@H](Cc1c[nH]c2ccccc12)C(=O)N[C@@H](CCSC)C(=O)N[C@H](C(=O)O)[C@@H](C)O [FIYM43] (H-KFEKEKMNC(Bn)KWMT-OH),no inhibition
11,CC[C@H](C)[C@H](NC(=O)[C@@H]1CCCN1C(=O)[C@H](CC(N)=O)NC(=O)[C@H](CCC(=O)O)NC(=O)[C@H](CCC(N)=O)NC(=O)[C@@H](NC(=O)[C@@H](NC(=O)[C@H](CCCNC(=N)N)NC(=O)[C@H](Cc1c[nH]c2ccccc12)NC(=O)[C@H](CCCCN)NC(=O)[C@H](CS)NC(=O)[C@H](CC(N)=O)NC(=O)[C@H](CCSC)NC(=O)[C@H](CCCCN)NC(=O)[C@H](CCC(=O)O)NC(=O)[C@H](CCCCN)NC(=O)[C@H](CCC(=O)O)NC(=O)[C@H](Cc1ccccc1)NC(=O)[C@@H](N)CCCCN)C(C)C)[C@@H](C)O)C(=O)N[C@@H](Cc1ccc(O)cc1)C(=O)N[C@@H](CCCCN)C(=O)O [FIYM56] (H-KFEKEKMNCKWRVTQENPIYK-OH),no inhibition

# Same assay, conditions: inhibition of binding between TLN1 and ITBG, read-out: Inhibitory activity
row,SMILES,IC50 [µM]
1,CSCC[C@H](NC(=O)[C@H](CCCCN)NC(=O)[C@H](CCC(=O)O)NC(=O)[C@H](CCCCN)NC(=O)[C@H](CCC(=O)O)NC(=O)[C@H](Cc1ccccc1)NC(=O)[C@H](CCCCN)NC(=O)[C@@H]1CCCN1C(C)=O)C(=O)N[C@@H](CC(N)=O)C(=O)N[C@@H](CS)C(=O)N[C@@H](CCCCN)C(=O)N[C@@H](Cc1c[nH]c2ccccc12)C(=O)N[C@@H](CCSC)C(=O)N[C@H](C(=O)O)[C@@H](C)O [FIYM17] (Ac-PKFEKEKMNCKWMT-OH),144
2,CSCC[C@H](NC(=O)[C@H](CCCCN)NC(=O)[C@H](CCC(=O)O)NC(=O)[C@H](CCCCN)NC(=O)[C@H](CCC(=O)O)NC(=O)[C@H](Cc1ccccc1)NC(=O)[C@@H](N)CCCCN)C(=O)N[C@@H](CC(N)=O)C(=O)N[C@@H](C)C(=O)N[C@@H](CCCCN)C(=O)N[C@@H](Cc1c[nH]c2ccccc12)C(=O)N[C@@H](CC(=O)O)C(=O)N[C@H](C(=O)O)[C@@H](C)O [FIYM1] (H-KFEKEKMNAKWDT-OH),709
3,CSCC[C@H](NC(=O)[C@H](CCCCN)NC(=O)[C@H](CCC(=O)O)NC(=O)[C@H](CCCNC(=N)N)NC(=O)[C@H](CCC(=O)O)NC(=O)[C@H](Cc1ccccc1)NC(=O)[C@@H](N)CCCCN)C(=O)N[C@@H](CC(N)=O)C(=O)N[C@@H](CS)C(=O)N[C@@H](CCCCN)C(=O)N[C@@H](Cc1c[nH]c2ccccc12)C(=O)N[C@@H](CCSC)C(=O)N[C@H](C(=O)O)[C@@H](C)O [FIYM27] (H-KFEREKMNCKWMT-OH),94.7
4,CSCC[C@H](NC(=O)[C@H](C)NC(=O)[C@H](CCCCN)NC(=O)[C@H](CS)NC(=O)[C@H](CC(N)=O)NC(=O)[C@H](CCSC)NC(=O)[C@H](CCCCN)NC(=O)[C@H](CCC(=O)O)NC(=O)[C@H](CCCCN)NC(=O)[C@H](CCC(=O)O)NC(=O)[C@H](C)NC(=O)[C@@H](N)CCCCN)C(=O)N[C@H](C(=O)O)[C@@H](C)O [FIYM46] (H-KAEKEKMNCKAMT-OH),474
5,CSCC[C@H](NC(=O)[C@H](CCCCN)NC(=O)[C@H](CCC(=O)O)NC(=O)[C@H](CCCCN)NC(=O)[C@H](CCC(=O)O)NC(=O)[C@H](Cc1ccccc1)NC(=O)[C@@H](N)CCCCN)C(=O)N[C@@H](CC(N)=O)C(=O)N[C@@H](CSCC(N)=O)C(=O)N[C@@H](CCCCN)C(=O)N[C@@H](Cc1c[nH]c2ccccc12)C(=O)N[C@@H](CCSC)C(=O)N[C@H](C(=O)O)[C@@H](C)O [FIYM39] (H-KFEKEKMNC(Cam)KWMT-OH),131

# Same assay, conditions: inhibition of binding between TLN1 and ITBG, µM, read-out: Inhibitory activity
row,SMILES,IC50 [µM]
1,CSCC[C@H](NC(=O)[C@H](CCCCN)NC(=O)[C@H](CCC(=O)O)NC(=O)[C@H](CCCCN)NC(=O)[C@H](CCC(=O)O)NC(=O)[C@H](Cc1ccccc1)NC(=O)[C@H](CCCCN)NC(=O)[C@@H](N)CCSC)C(=O)N[C@@H](CC(N)=O)C(=O)N[C@@H](CS)C(=O)N[C@@H](CCCCN)C(=O)N[C@@H](Cc1c[nH]c2ccccc12)C(=O)N[C@@H](CCSC)C(=O)N[C@H](C(=O)O)[C@@H](C)O [FIYM48] (H-MKFEKEKMNCKWMT-OH),292
